Data on two compounds can be found in patent US9233912B2, “Devices and methods for crystallization” (Massachusetts Institute of Technology, priority 2013, dated 2016).

Like-named read-outs stand apart in the source and are kept apart here.

The conditions of series [1]: w/w = g chemical/g solution; cited from earlier work.
Series [2] is described as follows: Integrated nucleator-tubular crystallizer experiment, crystal size by microscopic analysis. Type of series: physicochemical. Here is the method: (§1) To perform the analysis, a drop of solution or 1 mg of crystals dispersed in a few drops of mineral oil was first imaged using a 5× objective.
These experiments involved connecting the generator to a tubular crystallizer for crystal growth. This integrated nucleator-crystallizer experiment was conducted with a 49 mL tubular coiled crystallizer (Masterflex® L/S®, Chem-Durance® Bio tubing, ID=3.2 mm, Length=20 ft) using 1.54% acetaminophen solution. During the experiment, relatively small crystals generated in the nucleator were pumped into the tubular crystallizer at the same flow rate as the nuclei generator. The small crystals then grew in the crystallizer for a fixed residence time before the crystals were collected by vacuum filtration, as shown in FIG. 2. Two experiments at flow rates of 14.2 and 11.3 mL/min were conducted. The particle size distributions of the crystals were determined by microscopic analysis (Nikon Eclipse ME600).
The nuclei generator can be integrated into crystallization processes in which the production of crystals of specific size distribution is desired (See, e.g., FIGS. 1B, 1C, 2, 12). In some embodiments, with the continuous generation of nuclei, the nucleation and growth events were decoupled. In this case, nucleation was triggered in the nucleator, while growth continued in the crystallizer. Multiple integrated nucleator—tubular crystallizer experiments were conducted that illustrate this process.

The nature of series [3]: Nucleator only experiments, in-line FBRM chord length distribution. The conditions noted are these: FBRM at nucleator outlet, residence time 7.4 s and 10.3 s. Type of series: physicochemical. An excerpt:
In some embodiments, Focused Beam Reflectance Measurement (FBRM) or similar technique may be used to obtain characteristic size information. FBRM, in some embodiments, provides an ability to measure objects (e.g., crystals) in suspensions, e.g., at full process concentration, without the need for sample extraction and sample preparation. In some embodiments, FBRM method of measurement may be used which is based on a measurement of Chord Length Distribution that simultaneously tracks the rate and degree of change in particle count and mean chord length. As used herein, the term “chord length” refers to the length of a line segment passing across a portion of a projection of an object on a two-dimensional plane, and whose end points lie on the edge of the projection. The term “mean chord length” refers to the mean length of multiple chords, e.g., multiple randomly orientated chords. Methods for measuring mean particle count and mean chord length are well known in the art. See, […]. Particle Size Measurements: Fundamentals, Practice, Quality. […] Copyright 2009 Springer Science+Business Media B.V., and references cited therein.

The conditions of series [4]: Seeded Crystallization. Here is the method:
as §1
A continuous crystallization process with seeding was evaluated for comparison with an integrated nucleator-crystallizer device. A schematic diagram of the seeded crystallization experiment is depicted in FIG. 13. Seed crystals (nuclei) were obtained from antisolvent crystallization of glycine (to generate small crystals). Crystals obtained from antisolvent crystallization were sieved through a series of sieves with openings of 90, 63, and 45 μm. Seeds were collected from the 45 μm sieve.
For the seeded crystallization experiment, the crystallizer was first filled with the feed solution. Once filled, the process was seeded by pumping (50 mL/min) a suspension of 0.05 g seed in 25 mL feed solution into the crystallizer. After seeding, the crystallization process proceeded with continuous input of clear feed solution at 50 mL/min. Glycine crystals were collected by vacuum filtration at the crystallizer outlet. Except for the seeding procedure, the other experimental conditions for the seeded crystallization experiment were kept identical to the integrated nucleator-crystallizer experiment of Example 4.
Feed solution concentration: 24% (20% above saturation)
Residence time in crystallizer (100 mL): 2 min
Crystallizer holding temperature: 28° C.
The data were analyzed with crystals collected between 4-5 residence times (RT) when the device was at steady state.
To investigate the feasibility of the seeded experiment, a second experiment was conducted at lower crystallizer temperature (higher supersaturation that could potentially improve crystal growth rate).

How the values of series [5] were obtained:
as §1

A short description of series [6]: Integrated nucleator-crystallizer (Coflore crystallizer) experiment, crystal size. To be noted: for d0.1 / d0.5 / d0.9: Integrated nucleator crystallization.

Regarding `CC(=O)Nc1ccc(O)cc1` [Acetaminophen, acetaminophen], the “Saturation concentration at 25° C. (Cs)” value in series [1] was 1.48^16 % w/w. In series [2] (flow rate 11.31 mL/min), the “average growth rate inside the nucleator” value is 1.47×10^−7 m/s and the “mean size of crystals leaving the nucleator” value is given as 6.7 μm. Moreover, the “mean size of crystals after tubular crystallizer” value in series [2] (flow rate 11.31 mL/min, after 4.3 min in the tubular crystallizer) worked out at 13.5 μm. The “average growth rate inside the crystallizer” value in series [2] (flow rate 11.31 mL/min, tubular crystallizer) is recorded as 2.62×10^−7 m/s. The “mean size of small crystals produced” value in series [2] (integrated nucleator and tubular crystallizer, FIG. 9) turned out to be 12 μm. Also, the “span (D (0.9)-D (0.1)) of chord length distribution” value in series [3] is “≈ 20 μm”.

In the case of `NCC(=O)O` [Glycine, glycine], the “Saturation concentration at 25° C. (Cs)” value in series [1] is 20^15 % w/w. The d0.1 in series [4] (Run 1 (Tcryst = 28° C.)) was found to be 6.3 μm; in series [4] (Run 2 (Tcryst = 25° C.)) it was 7.4 μm; in series [4] (Seed), 2.4 μm; in series [6] (Coflore) it was 13.9 μm; in series [6] (Nucleator), 2.4 μm. For the same compound, the d0.5 amounted to 14.6 μm in series [4] (Run 1 (Tcryst = 28° C.)); 28.8 μm in series [4] (Run 2 (Tcryst = 25° C.)); 10.3 μm in series [4] (Seed); 34.1 μm in series [6] (Coflore); 8.8 μm in series [6] (Nucleator). In addition, the d0.9 in series [4] (Run 1 (Tcryst = 28° C.)) was 44.6 μm; in series [4] (Run 2 (Tcryst = 25° C.)) it was 90.3 μm; in series [4] (Seed), 50.8 μm; in series [6] (Coflore), 91.9 μm; in series [6] (Nucleator), 27.2 μm. Also, the “size below which 90% of the nuclei lie” value in series [5] (21% glycine solution, 30 s residence time, nucleator only) was “less than 12.28 μm”. Also, in series [5] (21% glycine solution, three residence times), the “coefficient of variation (CV) of nuclei size” value is listed as roughly 1. Further, in series [5] (21% glycine solution, three residence times (30 s, 2 min, 3.5 min)), the “size of nuclei obtained (mostly)” value is “less than 20 μm”. Besides, the “mean size of small crystals generated with the nucleator” value in series [5] (glycine experiments, nucleator device) is “up to 14 μm”. Further, the “average size of nuclei upon leaving the nucleator” value in series [6] (24% solution, 50 mL/min, approx. 10 s in nucleator) was found to be 14 μm. Further, the “average size of crystals from Coflore crystallizer” value in series [6] (24% solution, 50 mL/min, approx. 2 minutes in crystallizer, 28° C.) is 48 μm.
